Measured values from PMC9089912, “Imaging articular cartilage in osteoarthritis using targeted peptide radiocontrast agents” (PLoS ONE, 2022).
“Also recorded” adds a separate entry of the source. Non-standard residues stand in square brackets, D forms with d. Residues, ends and D or L forms follow the SMILES beside them. Tyr(3,5-I2) = N[C@@H](Cc1cc(I)c(O)c(I)c1)C(=O)O; AEEA = NCCOCCOCC(=O)O

How the values were obtained:
[1] = Solubility of purified DIT peptides at concentrations needed for radiocontrast; conditions: purified peptide (≥ 95% by HPLC), 10% DMSO/water, at 20 mg iodine/ml as well as 2 mg iodine/ml (lowest concentration for contrast)
From the text: An integrated design, placing DIT into the core of WYRGRL (3) was followed by the addition of a further DIT at the N-terminus (4). […] To improve solubility, both arginine residues in 3 and 4 were replaced with lysine to give 5 and 6, respectively.

[2] = target: T1, murine articular cartilage (type II collagen) (Mus musculus, UniProt P28481); assay: Fluorescence histology of murine cartilage after intra-articular injection of DOTAM-Cy5.5 probes; type: in vivo; conditions: 24 h after intra-articular injection into mouse knee joints; probes of ref 20
T1 construct: Fixed cryosections of murine tibiae (10 µm) 24 h after intra-articular injection of Ac-WYRGRL-DOTAM-Cy5.5 or Ac-YRLGRW-DOTAM-Cy5.5; from tissue; host or cells: articular cartilage of the mouse knee joint (in vivo injection, histology of tibial cryosections)
Method: Fluorescence immunohistochemistry for localisation of Ac-WYRGRL-DOTAM-Cy5.5. Fixed cryosections of murine tibiae (10 µm) 24 h after intra-articular injection of Ac-WYRGRL-DOTAM-Cy5.5 or Ac-YRLGRW-DOTAM-Cy5.5 [1] were blocked with 10% goat serum, stained with rat anti-heparan sulfate proteoglycan antibody (A7L6, Abcam), washed three times with PBS-Tween 0.05% (v/v), labelled with Alexa Fluor 488 goat anti-rat IgG (H+L, Abcam) and washed three times with PBS-Tween 0.05% (v/v) before imaging. Cryosections were viewed under a Nikon TE2000-U Ultraview confocal microscope (PerkinElmer, Seer Green, UK) using a 488 nm excitation laser with 525 nm emission filter to visualise the Alexa Fluor 488 label (green false colour), and a 640 nm excitation laser with 700 nm emission filter to visualise the Cy5.5 label (red false colour).

[3] = Ex vivo micro-CT contrast enhancement of murine articular cartilage: DIPIC vs PTA vs iopamidol; set-up: species or system mouse; conditions: 20 mg iodine/ml (PTA: 1% in 70% ethanol); for Thickness of cartilage assessed with the contrast agent: ex vivo mouse tibiae; for Thickness of cartilage assessed with the contrast agent / Difference in X-ray absorption between cartilage and background: micro-CT absorption profile; for X-ray absorption of background / X-ray absorption of cartilage / Difference in X-ray absorption between cartilage and background: overnight incubation of mouse tibiae (n = 3); for X-ray absorption of background / X-ray absorption of cartilage: mean ± SEM
Method: Ex vivo imaging with DIPIC, PTA or iopamidol. Mice were culled through inhalation of CO2 and their knee joints harvested and split under a dissection microscope. Tibiae (n = 3) were finely dissected to remove soft tissue and incubated overnight either in DIT peptide or iopamidol (Santa Cruz Biotechnology, Dallas, Texas, USA) at 20 mg iodine/ml (20 μl) or 1% PTA (Sigma) in 70% ethanol. To determine the contrast achieved in the articular cartilage at equilibrium, proximal tibiae were imaged by micro-CT while incubated in each contrast agent. […] Following imaging, tibiae were washed in saline and imaged in fresh saline until the articular cartilage could no longer be detected.
Generation of colour-coded absorption maps. To calibrate micro-CT scans in Hounsfield units (HU), air and water were scanned and reconstructed. The average grey level intensity within a cylindrical VOI was obtained from image histograms in ImageJ (air = -832.85, water = 152.54). Based on knowledge of the average grey level intensity and the corresponding HU (air = -1000, water = 0), the following linear transformation was derived (equation 2): […]
Using this calibration, the grey level intensity of each pixel was linearly transformed into X-ray absorption (HU) for each micro-CT image dataset using Matlab (R2014b, MathWorks, Natick, Massachusetts, USA). To enhance the difference between X-ray absorption of each tissue, colour-coded maps, also expressed in HU, were generated in Matlab by assigning a look up table (LUT) of 256 colours to each image dataset.

T1 sequence (P28481 182-1241 limits assumed): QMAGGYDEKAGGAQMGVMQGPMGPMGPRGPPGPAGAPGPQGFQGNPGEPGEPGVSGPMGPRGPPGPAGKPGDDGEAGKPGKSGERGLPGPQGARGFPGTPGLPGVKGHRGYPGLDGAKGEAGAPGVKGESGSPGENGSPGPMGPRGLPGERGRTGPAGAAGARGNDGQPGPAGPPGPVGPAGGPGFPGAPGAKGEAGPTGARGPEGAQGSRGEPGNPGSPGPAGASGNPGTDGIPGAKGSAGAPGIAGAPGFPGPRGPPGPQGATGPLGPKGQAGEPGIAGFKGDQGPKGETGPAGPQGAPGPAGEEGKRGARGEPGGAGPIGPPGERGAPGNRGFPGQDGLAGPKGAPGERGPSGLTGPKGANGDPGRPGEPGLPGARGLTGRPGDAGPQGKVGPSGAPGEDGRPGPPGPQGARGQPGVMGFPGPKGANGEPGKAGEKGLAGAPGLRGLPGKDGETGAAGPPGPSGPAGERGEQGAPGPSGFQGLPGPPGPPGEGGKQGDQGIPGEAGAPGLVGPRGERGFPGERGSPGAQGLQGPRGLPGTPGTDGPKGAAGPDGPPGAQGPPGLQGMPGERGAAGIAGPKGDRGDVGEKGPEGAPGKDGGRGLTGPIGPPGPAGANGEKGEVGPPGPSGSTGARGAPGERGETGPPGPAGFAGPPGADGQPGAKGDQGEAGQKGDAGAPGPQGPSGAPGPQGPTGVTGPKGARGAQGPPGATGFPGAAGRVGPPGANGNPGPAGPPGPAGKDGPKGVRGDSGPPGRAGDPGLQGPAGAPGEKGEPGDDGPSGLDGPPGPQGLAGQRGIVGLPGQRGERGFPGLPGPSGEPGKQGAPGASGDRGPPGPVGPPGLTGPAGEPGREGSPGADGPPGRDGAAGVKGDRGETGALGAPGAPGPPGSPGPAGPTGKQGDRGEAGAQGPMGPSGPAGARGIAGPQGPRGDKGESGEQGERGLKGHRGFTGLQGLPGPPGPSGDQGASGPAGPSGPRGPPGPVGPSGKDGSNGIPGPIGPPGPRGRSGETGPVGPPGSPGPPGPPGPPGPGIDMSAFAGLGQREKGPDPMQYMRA

CC(C)C[C@H](NC(=O)[C@H](CCCCN)NC(=O)CNC(=O)[C@H](CCCCN)NC(=O)[C@H](Cc1cc(I)c(O)c(I)c1)NC(=O)[C@@H](N)Cc1c[nH]c2ccccc12)C(=O)NCCOCCOCC(=O)N[C@@H](Cc1cc(I)c(O)c(I)c1)C(=O)NCC(=O)O [compound 14] (H-W[Tyr(3,5-I2)]KGKL[AEEA][Tyr(3,5-I2)]G-OH)
Solubility of pure peptide [1]: insoluble

CC(C)C[C@H](NC(=O)[C@H](CCCNC(=N)N)NC(=O)CNC(=O)[C@H](CCCNC(=N)N)NC(=O)[C@H](Cc1cc(I)c(O)c(I)c1)NC(=O)[C@H](Cc1c[nH]c2ccccc12)NC(=O)[C@@H](N)Cc1cc(I)c(O)c(I)c1)C(=O)O [compound 4] (H-[Tyr(3,5-I2)]W[Tyr(3,5-I2)]RGRL-OH)
Solubility of pure peptide [1]: poor solubility

Ac-YRLGRW-DOTAM-Cy5.5 [scrambled control peptide-DOTAM-Cy5.5 probe]
Binding of probe to cartilage (Cy5.5 fluorescence histology) [2]: Only targeted probe (F) showed binding to cartilage

CC(C)C[C@H](NC(=O)[C@H](CCCNC(=N)N)NC(=O)CNC(=O)[C@H](CCCNC(=N)N)NC(=O)[C@H](Cc1cc(I)c(O)c(I)c1)NC(=O)[C@@H](N)Cc1c[nH]c2ccccc12)C(=O)O [compound 3] (H-W[Tyr(3,5-I2)]RGRL-OH)
Solubility of pure peptide [1]: poor solubility

CC(C)C[C@H](NC(=O)[C@H](CCCCN)NC(=O)CNC(=O)[C@H](CCCCN)NC(=O)[C@H](Cc1cc(I)c(O)c(I)c1)NC(=O)[C@H](Cc1c[nH]c2ccccc12)NC(=O)[C@@H](N)Cc1cc(I)c(O)c(I)c1)C(=O)O [peptide 6] (H-[Tyr(3,5-I2)]W[Tyr(3,5-I2)]KGKL-OH)
Solubility of pure peptide [1]: insoluble in solution

O=P(O)(O)O.[O]=[W](=[O])=[O].[O]=[W](=[O])=[O].[O]=[W](=[O])=[O].[O]=[W](=[O])=[O].[O]=[W](=[O])=[O].[O]=[W](=[O])=[O].[O]=[W](=[O])=[O].[O]=[W](=[O])=[O].[O]=[W](=[O])=[O].[O]=[W](=[O])=[O].[O]=[W](=[O])=[O].[O]=[W](=[O])=[O] [PTA, phosphotungstic acid]
Thickness of cartilage assessed with the contrast agent [3]: 110 μm
X-ray absorption of background [3]: 342 ± 64 HU
X-ray absorption of cartilage [3]: 3657 ± 253 HU
Difference in X-ray absorption between cartilage and background [3]: 10.7 fold

C[C@H](O)C(=O)Nc1c(I)c(C(=O)NC(CO)CO)c(I)c(C(=O)NC(CO)CO)c1I [iopamidol]
Thickness of cartilage assessed with the contrast agent [3]: 70 μm
X-ray absorption of background [3]: 875 ± 12 HU
X-ray absorption of cartilage [3]: 678 ± 29 HU
Difference in X-ray absorption between cartilage and background [3]: 0.8 fold

CC(C)C[C@H](NC(=O)[C@H](CCCCN)NC(=O)CNC(=O)[C@H](CCCCN)NC(=O)[C@H](Cc1ccc(O)cc1)NC(=O)[C@H](Cc1c[nH]c2ccccc12)NC(=O)COCCOCCNC(=O)[C@H](Cc1cc(I)c(O)c(I)c1)NC(=O)[C@@H](N)Cc1cc(I)c(O)c(I)c1)C(=O)O [compound 12] (H-[Tyr(3,5-I2)][Tyr(3,5-I2)][AEEA]WYKGKL-OH)
Solubility of pure peptide [1]: insoluble

Ac-WYRGRL-DOTAM-Cy5.5 [targeting peptide conjugated to a macrocyclic DOTAM scaffold with a Cy5.5 fluorophore]
Binding of probe to cartilage (Cy5.5 fluorescence histology) [2]: strong binding of the targeted probe to cartilage; also recorded: showed binding to cartilage
